Results from patent US20110021565A1, “PIPERIDINE DERIVATIVES AS NK3 ANTAGONISTS” (priority 2007, published 2011).
pKi: −log10 of the molar value. Read-outs that look alike come from different tables or passages of the source.

Target: T1, recombinant human NK3 receptor (Homo sapiens, UniProt P29371)
T1 construct: expressed in transfected cells; host or cells: HEK293 cells, transient expression; membrane preparation
T1 sequence (P29371 1-465): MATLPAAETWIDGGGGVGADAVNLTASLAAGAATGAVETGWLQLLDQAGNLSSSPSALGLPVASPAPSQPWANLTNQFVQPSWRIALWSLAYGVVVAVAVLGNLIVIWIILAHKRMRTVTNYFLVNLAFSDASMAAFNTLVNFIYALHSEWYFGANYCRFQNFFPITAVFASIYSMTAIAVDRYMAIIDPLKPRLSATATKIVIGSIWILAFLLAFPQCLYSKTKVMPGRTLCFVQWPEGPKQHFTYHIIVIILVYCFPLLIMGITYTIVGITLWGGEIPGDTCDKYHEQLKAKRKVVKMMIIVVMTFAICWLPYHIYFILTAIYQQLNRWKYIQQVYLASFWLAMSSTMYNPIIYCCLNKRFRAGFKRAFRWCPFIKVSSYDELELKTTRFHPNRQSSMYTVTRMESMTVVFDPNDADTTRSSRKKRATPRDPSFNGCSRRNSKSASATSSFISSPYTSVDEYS
Assay: [3H]SR142801 competition binding assay
How it was run: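 Membranes from HEK293 cells transiently expressing the receptor (5 μg protein/well) incubated 75 min at RT with [3H]SR142801 at its KD and 10 compound concentrations (0.0003-10 μM), in pH 7.4 Tris buffer with MnCl2, phosphoramidon and BSA. Nonspecific binding defined with 10 μM SB222200; bound radioactivity counted after filtration. Ki from IC50 via Cheng-Prusoff; duplicates.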

[1] = [3H]SR142801, membranes of HEK293 cells transiently expressing recombinant human NK3 receptor, read-out: hNK3 Ki
[2] = representative compounds, [3H]SR142801, HEK293 membranes, human NK3 receptor, read-out: Ki NK3 h

CN(Cc1ccccc1Cl)C(=O)C(C)(CCN1CCC(N2CCCC2=O)CC1)c1ccc(Cl)c(Cl)c1 (stereo not drawn) [Example 90, N-(2-Chloro-benzyl)-2-(3,4-dichloro-phenyl)-2,N-dimethyl-4-[4-(2-oxo-pyrrolidin-1-yl)-piperidin-1-yl]-butyramide]
pKi [1]: 8.60 | pKi [2]: 8.60

CC(NC(=O)C(C)(CCN1CCC(N2CCCC2=O)CC1)c1ccc(Cl)c(Cl)c1)c1ccccc1 (stereo not drawn) [Example 91, 2-(3,4-Dichloro-phenyl)-2-methyl-4-[4-(2-oxo-pyrrolidin-1-yl)-piperidin-1-yl]-N-(1-phenyl-ethyl)-butyramide]
pKi [1]: 7.29

CC(C)(NC(=O)C(C)(CCN1CCC(N2CCCC2=O)CC1)c1ccc(Cl)c(Cl)c1)c1ccccc1 (stereo not drawn) [Example 92, 2-(3,4-Dichloro-phenyl)-2-methyl-N-(1-methyl-1-phenyl-ethyl)-4-[4-(2-oxo-pyrrolidin-1-yl)-piperidin-1-yl]-butyramide]
pKi [1]: 6.00

CC(CCN1CCC(N2CCCC2=O)CC1)(C(=O)NC1(c2ccccc2)CC1)c1ccc(Cl)c(Cl)c1 (stereo not drawn) [Example 93, 2-(3,4-Dichlorophenyl)-2-methyl-4-[4-(2-oxo-pyrrolidin-1-yl)-piperidin-1-yl]-N-(1-phenyl-cyclopropyl)-butyramide]
pKi [1]: 6.73

CC(CCN1CCC(N2CCCC2=O)CC1)(C(=O)NC(c1ccccc1)C(F)(F)F)c1ccc(Cl)c(Cl)c1 (stereo not drawn) [Example 95, 2-(3,4-Dichloro-phenyl)-2-methyl-4-[4-(2-oxo-pyrrolidin-1-yl)-piperidin-1-yl]-N-(2,2,2-trifluoro-1-phenyl-ethyl)-butyramide]
pKi [1]: 8.33 | pKi [2]: 8.33

CC(CCN1CCC(N2CCCC2=O)CC1)(C(=O)NC(c1ccc(F)cc1)C(F)(F)F)c1ccc(Cl)c(Cl)c1 (stereo not drawn) [Example 96, 2-(3,4-Dichloro-phenyl)-2-methyl-4-[4-(2-oxo-pyrrolidin-1-yl)-piperidin-1-yl]-N-[2,2,2-trifluoro-1-(4-fluoro-phenyl)-ethyl]-butyramide]
pKi [1]: 8.14 | pKi [2]: 8.14

CC(CCN1CCC(N2CCCC2=O)CC1)(C(=O)NC(c1ccc(C(F)(F)F)cc1)C(F)(F)F)c1ccc(Cl)c(Cl)c1 (stereo not drawn) [Example 97, 2-(3,4-Dichloro-phenyl)-2-methyl-4-[4-(2-oxo-pyrrolidin-1-yl)-piperidin-1-yl]-N-[2,2,2-trifluoro-1-(4-trifluoromethyl-phenyl)-ethyl]-butyramide]
pKi [1]: 8.09

CC(=O)N(C)C1CCN(CCC(C)(C(=O)NCc2ccc(C(F)(F)F)c(F)c2)c2ccc(Cl)c(Cl)c2)CC1 (stereo not drawn) [Example 99, 4-[4-(Acetyl-methyl-amino)-piperidin-1-yl]-2-(3,4-dichloro-phenyl)-N-(3-fluoro-4-trifluoromethyl-benzyl)-2-methyl-butyramide]
pKi [1]: 8.24 | pKi [2]: 8.24

CC(=O)N(C)C1CCN(CCC(C)(C(=O)N(C)Cc2ccc(Cl)c(Cl)c2)c2ccc(Cl)c(Cl)c2)CC1 (stereo not drawn) [Example 100, 4-[4-(Acetyl-methyl-amino)-piperidin-1-yl]-N-(3,4-dichloro-benzyl)-2-(3,4-dichloro-phenyl)-2,N-dimethyl-butyramide]
pKi [1]: 8.52 | pKi [2]: 8.52

CC(=O)N(C)C1CCN(CCC(C)(C(=O)NCc2ccc(Cl)c(Cl)c2)c2ccc(Cl)c(Cl)c2)CC1 (stereo not drawn) [Example 101, 4-[4-(Acetyl-methyl-amino)-piperidin-1-yl]-N-(3,4-dichloro-benzyl)-2-(3,4-dichloro-phenyl)-2-methyl-butyramide]
pKi [1]: 8.17 | pKi [2]: 8.17

CC(=O)N(C)C1CCN(CCC(C)(C(=O)N(C)Cc2ccc(Cl)cc2)c2ccc(Cl)c(Cl)c2)CC1 (stereo not drawn) [Example 102, 4-[4-(Acetyl-methyl-amino)-piperidin-1-yl]-N-(4-chloro-benzyl)-2-(3,4-dichloro-phenyl)-2,N-dimethyl-butyramide]
pKi [1]: 8.29 | pKi [2]: 8.29
